Measurements published in PMC11855827, “High-Throughput Screening of Five Compound Libraries for Anthelmintic Activity and Toxicity Leads to the Discovery of Two Flavonoid Compounds” (International Journal of Molecular Sciences, 2025).
Several values for one entry are separate records, joined by “and”; a condition that tells them apart may be missing. Equal entries are not always repeated. Where two headings read alike, the source gives them in different places. *1 amine or outer side, *2 acyl side, *3 side chain or, on linkers, in order; H or OH if unused. Where a SMILES comes first, the peptide text is derived from it. Bridges are numbered along the chain shown (N, C = ends). [ ]: non-standard residue; d: D form. The star is where a group is joined. Orn(4R-OH,5R-OH) = O=C([C@H](C[C@@H](O)[C@@H](O)N[*:3])N[*:1])[*:2]; Tetradecanoyl(10R,12S-Me2) = CC[C@H](C)C[C@H](C)CCCCCCCCC(=O)*; hTyr(3S-OH,4S-OH) = N[C@H](C(=O)O)[C@H](O)[C@@H](O)c1ccc(O)cc1; Gln(3R-OH) = NC(=O)C[C@@H](O)[C@H](N)C(=O)O; Pro(3S-OH) = O=C(O)[C@H]1NCC[C@@H]1O; Hyp = O=C(O)[C@@H]1C[C@@H](O)CN1

Tested on: C. elegans
[1] = Table S2, C. elegans SS assay, 110 μM, 0 h, averages of 4 data points
[2] = Table S2, C. elegans SS assay, 110 μM, 24 h, averages of 4 data points

| SMILES | Percentage of motility inhibition 0 h (110 µM) [%] | Percentage of motility inhibition 24 h (110 µM) [%] | Percentage of motility inhibition 0 h [1] [%] | Percentage of motility inhibition 24 h [2] |
| --- | --- | --- | --- | --- |
| CNC(=O)Oc1ccc2c(c1)[C@]1(C)CCN(C)[C@@H]1N2C.O=C(O)c1ccccc1O [Physostigmine (salicylate)] | 0 | 0 |  |  |
| COC(=O)[C@@]1(C)CC[C@]2(C(=O)O)CC[C@]3(C)C(=CC[C@@H]4[C@@]5(C)C[C@H](O)[C@H](O)[C@@](C)(CO)[C@@H]5CC[C@]43C)[C@@H]2C1 [Phytolaccagenin] |  |  | 5 | 15% |
| CC(C)C1=CC(=O)[C@@](C)([C@H]2[C@H](O)C[C@@]3(C)[C@@H]4CC=C5[C@@H](CC[C@@H](O[C@@H]6OC[C@@H](O)[C@H](O)[C@H]6O[C@@H]6O[C@@H](C)[C@H](O)[C@@H](O)[C@H]6O)C5(C)C)[C@]4(C)C(=O)C[C@]23C)O1 [Picfeltarraenin IA] |  |  | 5 | 2% |
| CC(C)C1=CC(=O)C(C)(C2C(O)CC3(C)C4CC=C5C(CCC(OC6OC(CO)C(O)C(O)C6OC6OC(C)C(O)C(O)C6O)C5(C)C)C4(C)C(=O)CC23C)O1 (centres unmarked) [Picfeltarraenin IB] |  |  | 0 | 34% |
| O=C1C[C@@H](c2ccccc2)Oc2cc(O[C@@H]3O[C@H](CO)[C@@H](O)[C@H](O)[C@H]3O)cc(O)c21 [Pinocembrin‐7‐O‐β‐D‐glucopyranoside] |  |  | 0 | 17% |
| CCN1CCN(C(=O)N[C@@H](C(=O)N[C@@H]2C(=O)N3[C@@H]2SC(C)(C)[C@@H]3C(=O)[O-])c2ccccc2)C(=O)C1=O.[Na+] [Piperacillin (sodium)] |  |  | 31 | 2% |
| C1CNCCN1.O.O.O.O.O.O [Piperazine (hexahydrate)] |  |  | 58 | 12% |
| C1CNCCN1.O=C(O)CC(O)C(=O)O (centres unmarked) [Piperazine (malate)] |  |  | 26 | 14% |
| C1CNCCN1.O=C(O)CCCCC(=O)O [Piperazine adipate] |  |  | 10 | 13% |
| COc1cc(/C=C/C(=O)N2CCC=CC2=O)cc(OC)c1OC [Piperlongumine] |  |  | 0 | 0% |
| Cc1cc(CC(C)CC(C)(C)C)n(O)c(=O)c1.NCCO (centres unmarked) [Piroctone olamine] |  |  | 5 | 7% |
| CC(C)(C)C(=O)OCOC(=O)[C@@H]1N2C(=O)[C@@H](N=CN3CCCCCC3)[C@H]2SC1(C)C.Cl [Pivmecillinam (hydrochloride)] |  |  | 12 | 0% |
| CC1(C)CC[C@]2(C(=O)O)[C@H](O)C[C@]3(C)C(=CC[C@@H]4[C@@]5(C)C[C@H](O)[C@H](O)C(CO)(CO)[C@@H]5CC[C@]43C)[C@@H]2C1 [Platicodigenin] |  |  | 0 | 0% |
| C[C@@H]1O[C@@H](O[C@H]2[C@H](OC(=O)[C@]34CCC(C)(C)C[C@H]3C3=CC[C@@H]5[C@@]6(C)C[C@H](O)[C@H](O[C@@H]7O[C@H](CO)[C@@H](O)[C@H](O)[C@H]7O)[C@](CO)(C(=O)O)[C@@H]6CC[C@@]5(C)[C@]3(C)C[C@H]4O)OC[C@H](O)[C@@H]2O)[C@H](O)[C@H](O)[C@H]1O[C@@H]1OC[C@@H](O)[C@H](O[C@@H]2OC[C@](O)(CO)[C@H]2O)[C@H]1O [Platyconic acid A] |  |  | 0 | 5% |
| CC[C@H](C)C[C@H](C)CCCCCCCCC(=O)N[C@H]1C[C@@H](O)[C@@H](O)NC(=O)[C@@H]2[C@@H](O)CCN2C(=O)[C@H]([C@H](O)CC(N)=O)NC(=O)[C@H]([C@H](O)[C@@H](O)c2ccc(O)cc2)NC(=O)[C@@H]2C[C@@H](O)CN2C(=O)[C@H]([C@@H](C)O)NC1=O [Pneumocandin B0] ({Tetradecanoyl(10R,12S-Me2)}-[Orn(4R-OH,5R-OH)]T[Hyp][hTyr(3S-OH,4S-OH)][Gln(3R-OH)][Pro(3S-OH)]; lactam 1-C) |  |  | 0 | 0% |
| COc1ccc(OCc2ccc(COc3c(Cl)cccc3Cl)cc2)c(Cl)c1 [Pocapavir] |  |  | 29 | 18% |
| CC1(C)CCC2(C(=O)O)C(O)CC3(C)C(=CCC4C5(C)CC(O)C(O)C(C)(CO)C5CCC43C)C2C1 (centres unmarked) [Polygalacic acid] |  |  | 3 | 0% |
| C[C@@H]1O[C@@H](O[C@H]2[C@H](OC(=O)[C@]34CCC(C)(C)C[C@H]3C3=CC[C@@H]5[C@@]6(C)C[C@H](O)[C@H](O[C@@H]7O[C@H](CO)[C@@H](O)[C@H](O)[C@H]7O)[C@@](C)(CO)[C@@H]6CC[C@@]5(C)[C@]3(C)CC4)O[C@H](CO)[C@@H](O)[C@@H]2O)[C@H](O)[C@H](O)[C@H]1O[C@@H]1OC[C@@H](O)[C@H](O)[C@H]1O [Polygalasaponin F] |  |  | 5 | 0% |

| SMILES | Percentage of motility inhibition 0 h (110 µM) [%] | Percentage of motility inhibition 24 h (110 µM) [%] | Percentage of motility inhibition 0 h [1] [%] | Percentage of motility inhibition 24 h [2] |
| --- | --- | --- | --- | --- |
| CC1(C)CC[C@]2(C(=O)O)CCC3=C(CC[C@@H]4[C@@]5(C)C[C@H](O)[C@H](O)[C@@](C)(C(=O)O)[C@@H]5CC[C@@]34C)[C@@H]2C1 [Polygalic acid] |  |  | 0 | 1% |
| C=C(CC[C@@H](C(=O)O)[C@H]1[C@H](O)C[C@@]2(C)C3=CC[C@H]4C(C)(C)C(=O)CC[C@]4(C)C3=CC[C@]12C)C(C)C [Polyporenic acid C] |  |  | 30 | 12% |
| CC(=O)[C@H]1CC[C@H]2[C@@H]3CC=C4C[C@@H](OS(=O)(=O)[O-])CC[C@]4(C)[C@H]3CC[C@]12C.[Na+] [Pregnenolone monosulfate (sodium)] |  |  | 0 | 0% |
| CC(=O)C1CCC2C3CC=C4CC(OS(=O)(=O)O)CCC4(C)C3CCC12C (centres unmarked) [Pregnenolone monosulfate] |  |  | 0 | 4% |
| CC(=O)[C@H]1CC[C@H]2[C@@H]3CC=C4C[C@@H](O)CC[C@]4(C)[C@H]3CC[C@]12C [Pregnenolone] |  |  | 11 | 4% |
| COc1cc(NC(C)CCCN)c2ncccc2c1.O=P(O)(O)O.O=P(O)(O)O (centres unmarked) [Primaquine (Diphosphate)] |  |  | 37 | 0% |
| Oc1cc(O)c2c(c1)OC1(c3ccc(O)c(O)c3)Oc3cc(O)c4c(c3C2C1O)OC(c1ccc(O)c(O)c1)C(O)C4 (centres unmarked) [Procyanidin A1] |  |  | 23 | 12% |
| Oc1cc(O)c2c(c1)O[C@@]1(c3ccc(O)c(O)c3)Oc3cc(O)c4c(c3[C@@H]2[C@H]1O)O[C@H](c1ccc(O)c(O)c1)[C@H](O)C4 [Procyanidin A2] |  |  | 6 | 3% |
| Nc1ccc2cc3ccc(N)cc3nc2c1.Nc1ccc2cc3ccc(N)cc3nc2c1.O=S(=O)(O)O [Proflavine (hemisulfate)] |  |  | 7 | 16% |
| CC(C)NCC(O)COc1cccc2ccccc12.Cl (centres unmarked) [Propranolol (hydrochloride)] |  |  |  | 51% and 35% |
| C[C@H]1O[C@@H](O[C@H]2CC[C@@]3(C)[C@@H](CC[C@]4(C)[C@@H]3C=CC3=C5CC(C)(C)CC[C@]5(CO)[C@H](O)C[C@]34C)[C@]2(C)CO)[C@H](O)[C@@H](O)[C@H]1O [Prosaikogenin D] |  |  | 15 | 54% |
| COC1=C(C)C(=O)O[C@]12C(=O)C(C)=C1CCCCN3[C@H]([C@@H]4C[C@H](C)C(=O)O4)CC[C@@]132 [Protostemotinine] |  |  | 0 | 22% |
| [Cl-].c1c2c(cc3c1OCO3)-c1cc3cc4c(cc3c[n+]1CC2)OCO4 [Pseudocoptisine (chloride)] |  |  | 0 | 14% |
| CC(C)(O)[C@H]1CC[C@@](C)([C@H]2CC[C@]3(C)[C@@H]2[C@H](O)C[C@@H]2[C@@]4(C)CC[C@H](O)C(C)(C)[C@@H]4[C@@H](O[C@@H]4O[C@H](CO)[C@@H](O)[C@H](O)[C@H]4O)C[C@]23C)O1 [Pseudoginsenoside RT5] |  |  | 0 | 16% |
| COC(=O)C1=CC[C@@]23CC[C@@H]([C@@](C)(/C=C/C=C(\C)C(=O)O[C@@H]4O[C@H](CO)[C@@H](O)[C@H](O)[C@H]4O)OC2=O)[C@@]3(OC(C)=O)CC1 [Pseudolaric acid B β-D-glucoside] |  |  | 4 | 0% |
| C=C(C)[C@@H]1CC[C@]2(C(=O)O)CC[C@]3(C)[C@H](CC[C@@H]4[C@@]5(C)CC[C@H](O[C@@H]6OC[C@H](O)[C@H](O)[C@H]6O[C@@H]6O[C@@H](C)[C@H](O)[C@@H](O)[C@H]6O)[C@@](C)(CO)[C@@H]5CC[C@]43C)[C@@H]12 [Pulchinenoside A] |  |  | 15 | 7% |
| C=C(C)[C@@H]1CC[C@]2(C(=O)O[C@@H]3O[C@H](CO[C@@H]4O[C@H](CO)[C@@H](O[C@@H]5O[C@@H](C)[C@H](O)[C@@H](O)[C@H]5O)[C@H](O)[C@H]4O)[C@@H](O)[C@H](O)[C@H]3O)CC[C@]3(C)[C@H](CC[C@@H]4[C@@]5(C)CC[C@H](O[C@@H]6OC[C@H](O)[C@H](O)[C@H]6O[C@@H]6O[C@@H](C)[C@H](O)[C@@H](O)[C@H]6O)[C@@](C)(CO)[C@@H]5CC[C@]43C)[C@@H]12 [Pulchinenoside C] |  |  | 4 | 0% |
| C[C@@H]1O[C@@H](O[C@H]2[C@H](O[C@H]3CC[C@@]4(C)[C@@H](CC[C@]5(C)[C@@H]4CC=C4[C@@H]6CC(C)(C)CC[C@]6(C(=O)O)CC[C@]45C)[C@]3(C)CO)OC[C@H](O[C@@H]3O[C@H](CO)[C@@H](O)[C@H](O)[C@H]3O)[C@@H]2O)[C@H](O)[C@H](O)[C@H]1O [Pulsatilla saponin D] |  |  | 0 | 0% |
